Read-outs that look alike come from different tables or passages of the source.

In data set [1] the test system is CYP3A4/5. Type of data set: in vitro ADME, human. Conditions: Testosterone 6β-hydroxylase, 5 mM.
For another data set, the target named is T1, CYP1A2 (Homo sapiens, UniProt P05177).
T1 construct: from tissue; host or cells: human liver microsomes
T1 sequence (P05177 1-516): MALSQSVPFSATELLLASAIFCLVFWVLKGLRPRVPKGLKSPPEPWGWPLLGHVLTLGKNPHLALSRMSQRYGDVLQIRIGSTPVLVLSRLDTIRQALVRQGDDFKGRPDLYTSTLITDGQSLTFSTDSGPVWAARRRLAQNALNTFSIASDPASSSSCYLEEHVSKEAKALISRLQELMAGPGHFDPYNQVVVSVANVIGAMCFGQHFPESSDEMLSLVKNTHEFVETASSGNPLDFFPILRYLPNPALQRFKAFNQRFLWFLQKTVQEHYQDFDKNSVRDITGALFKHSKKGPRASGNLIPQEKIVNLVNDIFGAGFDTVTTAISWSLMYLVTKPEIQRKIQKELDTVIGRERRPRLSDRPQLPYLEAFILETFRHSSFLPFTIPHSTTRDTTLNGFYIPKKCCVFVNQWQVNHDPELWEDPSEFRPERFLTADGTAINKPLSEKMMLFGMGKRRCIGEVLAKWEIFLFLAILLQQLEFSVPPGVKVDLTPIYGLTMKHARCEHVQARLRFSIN
Type of data set: in vitro ADME. The following applies: for % Inhibition: 7-ethoxyresorufin-O-deethylase, 5 mM.

Data set [2] has as its system CYP3A4/5.
The target of the next data set is T2, CYP2C19 (Homo sapiens, UniProt P33261).
T2 construct: from tissue; host or cells: human liver microsomes
T2 sequence (P33261 whole entry): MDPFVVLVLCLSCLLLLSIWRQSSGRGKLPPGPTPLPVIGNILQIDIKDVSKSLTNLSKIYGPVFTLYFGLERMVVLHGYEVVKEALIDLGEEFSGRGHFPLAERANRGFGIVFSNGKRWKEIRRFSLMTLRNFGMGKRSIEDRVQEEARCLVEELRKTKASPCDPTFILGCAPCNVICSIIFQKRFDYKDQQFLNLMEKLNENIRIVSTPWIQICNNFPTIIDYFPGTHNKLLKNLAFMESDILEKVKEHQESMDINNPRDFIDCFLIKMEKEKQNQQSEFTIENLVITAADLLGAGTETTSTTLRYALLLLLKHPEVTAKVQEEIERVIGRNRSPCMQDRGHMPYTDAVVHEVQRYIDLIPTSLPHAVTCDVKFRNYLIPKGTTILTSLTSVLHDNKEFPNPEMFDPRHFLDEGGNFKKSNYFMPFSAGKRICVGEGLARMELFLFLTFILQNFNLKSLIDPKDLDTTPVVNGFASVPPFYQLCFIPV
It is filed as in vitro ADME. The following applies: for % Inhibition: S-Mephenytoin 4′-hydroxylase, 5 mM.

In another data set the target is T3, CYP2C8 (Homo sapiens, UniProt P10632).
T3 construct: from tissue; host or cells: human liver microsomes
T3 sequence (P10632 1-490): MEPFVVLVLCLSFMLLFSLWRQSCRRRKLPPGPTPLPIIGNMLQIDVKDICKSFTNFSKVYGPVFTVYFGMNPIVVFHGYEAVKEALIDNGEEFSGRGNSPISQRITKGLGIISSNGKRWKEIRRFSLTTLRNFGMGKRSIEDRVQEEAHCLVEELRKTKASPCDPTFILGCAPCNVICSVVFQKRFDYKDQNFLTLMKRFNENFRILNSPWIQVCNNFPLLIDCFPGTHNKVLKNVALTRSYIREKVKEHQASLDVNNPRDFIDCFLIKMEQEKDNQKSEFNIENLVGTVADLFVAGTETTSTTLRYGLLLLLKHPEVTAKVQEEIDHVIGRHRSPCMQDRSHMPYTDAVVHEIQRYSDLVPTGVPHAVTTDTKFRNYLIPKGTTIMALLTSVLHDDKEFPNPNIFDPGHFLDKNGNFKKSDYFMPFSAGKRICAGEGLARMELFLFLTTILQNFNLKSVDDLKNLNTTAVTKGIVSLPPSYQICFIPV
Nature of the data set: In vitro CYP inhibition study, human liver microsomes, CYP2C8. It is filed as in vitro ADME. The following applies: for % Inhibition: Taxol 6α-hydroxylase, 5 mM. For orientation: Microsomes from liver hold many membrane-bound enzymes, among them those of drug oxidation.

A short description of data set [3]: Mean peak concentration of PBA and PAA in different patient populations.
Another data set concerns the target Cytochrome P450 3A4 (Homo sapiens, UniProt P08684). Nature of the data set: clinical. Conditions: for overall 1′-OH-midazolam exposure (based on AUC) increased by: free+conjugates. As to the method: (§1) Methodology: This was a Phase 1, open-label, monosequence crossover, drug-drug interaction study of RAVICTI® and midazolam in healthy male and female subjects.
(§2) Single doses of midazolam HCl syrup (2 mg/mL) were administered in the morning following an approximate 10-hour fast on Days 1 and 5 (coadministered with RAVICTI® on Day 5) just prior to administration of breakfast (˜5 minutes before breakfast).
(§3) Pharmacokinetics: Blood samples for the analysis of plasma midazolam and its metabolite (1′-OH-midazolam, free+conjugates) levels were collected via an indwelling catheter and/or via direct venipuncture. Blood samples were collected on Days 1 and 5 at the following time points: predose, 0.5, 1, 2, 3, 4, 6, 8, 10, 12, 16, and 24 hours postdose. In addition, five plasma PK samples for GPB analysis were collected on Day 4 at the following time points: at 1 minute, 30 minutes, and 1 hour following the first morning dose of RAVICTI; at 30 minutes and 1 hour post second dose of RAVICTI.
(§4) Pharmacokinetics: The possible drug-drug interaction was examined between coadministration of RAVICTI and midazolam (test) and midazolam administered alone (reference). An analysis of variance (ANOVA), with treatment as a fixed effect and subject as a random effect, was performed. Data for Cmax, AUC0-t, and AUC0-∞, as appropriate, were natural log (ln)-transformed prior to analysis. The 90% confidence intervals (CIs) of the test group means relative to the reference group means were obtained by taking the antilog of the corresponding 90% CIs for the differences between the means on the log scale, i.e., ratio of geometric least-squares (LS) means.

The target of the next data set is CYP2C9 (Homo sapiens, UniProt P11712). Kind of data set: clinical. Conditions: both, human, plasma, oral, 200 mg. As to the method: (§5) Methodology: This was an open-label, 2-period, monosequence crossover, drug-drug interaction (DDI) study of RAVICTI and celecoxib in healthy male and female subjects.
Sequence of CYP2C9 (P11712 whole entry): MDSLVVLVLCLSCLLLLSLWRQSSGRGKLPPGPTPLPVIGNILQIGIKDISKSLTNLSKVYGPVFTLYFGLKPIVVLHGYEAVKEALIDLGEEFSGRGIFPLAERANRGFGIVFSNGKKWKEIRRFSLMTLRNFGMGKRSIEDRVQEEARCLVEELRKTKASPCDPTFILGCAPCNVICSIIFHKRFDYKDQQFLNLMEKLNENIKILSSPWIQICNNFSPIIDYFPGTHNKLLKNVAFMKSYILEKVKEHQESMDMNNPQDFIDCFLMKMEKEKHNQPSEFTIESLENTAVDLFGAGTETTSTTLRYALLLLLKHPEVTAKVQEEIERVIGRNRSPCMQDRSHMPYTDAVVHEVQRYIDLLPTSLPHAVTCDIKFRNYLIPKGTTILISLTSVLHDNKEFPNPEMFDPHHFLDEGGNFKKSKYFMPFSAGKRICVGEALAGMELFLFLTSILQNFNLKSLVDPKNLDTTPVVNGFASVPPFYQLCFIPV
(§6) Test Product, Dose, Duration, and Mode of Administration: In Treatment A (Period 1), subjects received 200 mg celecoxib (1×200 mg capsule) administered orally with approximately 240 mL of water following an overnight fast and approximately 5 minutes prior to the start of a standard breakfast on Day 1.
(§7) Pharmacokinetics: Blood samples (4 mL) for the analysis of plasma celecoxib were collected on Days 1 (Period 1) and 4 (Period 2) at the following time points: predose (Hour 0) and 1, 2, 3, 4, 6, 8, 12, 16, 24, 36, 48, 60, and 72 hours postdose. A blood sample (6 mL) for CYP2C9 genotyping was collected at screening to exclude any subjects with a slow metabolizer genotype (i.e., CYP2C9*2/*2, CYP2C9*2/*3, CYP2C9*1/*3, and CYP2C9*3/*3). PK parameters for celecoxib in plasma were computed following Day 1 (Period 1) and Day 4 (Period 2) blood draws and included AUC0-t, AUC0-inf, AUC%extr, Cmax, tmax, t1/2, kel, and CL/F.
(§8) Pharmacokinetics: The possible DDI was examined between co-administration of RAVICTI and celecoxib (Treatment B, test) and celecoxib administered alone (Treatment A, reference). An analysis of variance (ANOVA) was performed with treatment as a fixed effect and subject as a random effect. Data for AUC0-t, AUC0-inf, and Cmax, as appropriate, were ln-transformed prior to analysis. The 90% confidence intervals (CIs) of the test group means relative to the reference group means were obtained by taking the antilog of the corresponding 90% CIs for the differences between the means on the log scale, i.e., ratio of geometric least-squares (LS) means.

Another data set has as its target Cytochrome P450 2C9 (Homo sapiens, UniProt P11712). Nature of the data set: clinical. Conditions: 200 mg celecoxib with RAVICTI 4 mL three times a day for 6 days, fed conditions. As to the method:
as §5, §6, §7, §8

Another data set deals with CYP3A4 (Homo sapiens, UniProt P08684). Kind of data set: clinical. The following applies: both, human, in vivo, 3 mg. As to the method:
as §1, §2, §3, §4

Setting [4] is: after RAVICTI 4 mL three times a day for 3 days, fed conditions, healthy subjects.
The mark [5] stands for this setting: upon coadministration with multiple-dose RAVICTI.

Sequence of CYP3A4 (P08684 whole entry): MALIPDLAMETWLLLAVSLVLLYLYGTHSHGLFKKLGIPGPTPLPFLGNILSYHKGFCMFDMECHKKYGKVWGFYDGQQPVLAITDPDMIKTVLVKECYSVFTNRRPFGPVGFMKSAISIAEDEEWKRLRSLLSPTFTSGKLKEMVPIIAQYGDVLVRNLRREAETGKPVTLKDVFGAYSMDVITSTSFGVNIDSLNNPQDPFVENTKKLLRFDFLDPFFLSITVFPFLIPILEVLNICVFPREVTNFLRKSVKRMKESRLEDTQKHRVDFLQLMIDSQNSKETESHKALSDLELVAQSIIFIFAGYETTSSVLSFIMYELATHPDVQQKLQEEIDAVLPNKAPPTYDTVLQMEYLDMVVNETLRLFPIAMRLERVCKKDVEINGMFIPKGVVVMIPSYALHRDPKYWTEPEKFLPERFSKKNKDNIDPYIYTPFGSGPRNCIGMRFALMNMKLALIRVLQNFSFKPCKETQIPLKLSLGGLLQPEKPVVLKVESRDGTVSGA
Sequence of Cytochrome P450 3A4 (P08684 whole entry): as above
Sequence of Cytochrome P450 2C9 (P11712 whole entry): as the sequence (P11712 whole entry) above

The term % Inhibition denotes the drop in the measured response relative to a control, in per cent. Low values mean a weak effect, high ones a strong effect. Take phenylbutyrate [PBA]: the “% Inhibition” value is given as 80% in the data set on CYP3A4/5 [1] (pre-incubation time 0 min); 85% with CYP3A4/5 [1] (pre-incubation time 30 min); 6% on CYP1A2 (pre-incubation time 0 min); 2% on CYP1A2 (pre-incubation time 30 min); 26% on CYP2C19 (pre-incubation time 0 min); 19% at CYP2C19 (pre-incubation time 30 min). Also, the “% Inhibition” value on CYP2C8 (pre-incubation time 0 min) is given as 24%; at CYP2C8 (pre-incubation time 30 min), 27%. On CYP1A2 (5 mM (0.821 mg/ml)), the “inhibition of CYP1A2 (in words)” value is given as “did not inhibit”. Also, the “extent of induction lower compared to the positive control (rifampicin)” value with CYP3A4/5 [2] is reported as “about 50%”. In addition, on CYP2C19 (5 mM (0.821 mg/ml)), the “inhibition of CYP2C19 (in words)” value was “did not inhibit”. Moreover, the “inhibition of CYP2C8 (in words)” value against CYP2C8 (5 mM (0.821 mg/ml)) is reported as “did not inhibit”. For the same compound, the “PBA Mean peak concentration” value in [3] (Cirrhotic - HE 9 ml BID) came out at 0.1412 mg/mL; in [3] (Healthy volunteer) it was 0.037 mg/mL; in data set [3] (UCD adult) it was 0.0701 mg/mL; in [3] (UCD pediatric) it was 0.0956 mg/mL.

Take `OCc1ncc2n1-c1ccc(Cl)cc1C(c1ccccc1F)=NC2` [1′-OH-midazolam]: at Cytochrome P450 3A4 (setting [4]), the “mean AUC for 1-hydroxy midazolam higher than midazolam alone” value worked out at 58% and the “mean Cmax for 1-hydroxy midazolam higher than midazolam alone” value is given as 28%. At Cytochrome P450 3A4 (setting [5]), the “1′-OH-midazolam Cmax (peak exposure) increased by” value stood at 28% and the “overall 1′-OH-midazolam exposure (based on AUC) increased by” value was “approximately 60%”. For the same compound, the “overall 1′-OH-midazolam exposure (based on AUC) increased by” value on Cytochrome P450 3A4 (upon coadministration with multiple-dose RAVICTI, listed as 1′-hydroxy-midazolam) was 60%.

The AUC(0-inf) is total exposure, with the tail of the curve extrapolated. High values mean more exposure, low ones less exposure. By AUC(0-t) is commonly meant exposure summed from dosing to a finite time, without extrapolation to infinity. Read a low AUC(0-t) as less exposure. In general, Cmax refers to the highest concentration seen after dosing. In the case of `Cc1ccc(-c2cc(C(F)(F)F)nn2-c2ccc(S(N)(=O)=O)cc2)cc1` [Celecoxib, celecoxib], at CYP2C9, the AUC(0-inf) came out at 5440 ng·h/mL, the exposure AUC(0-t) came to 5170 ng·h/mL and the highest level (Cmax) was 620 ng/mL. Besides, at Cytochrome P450 2C9, the “mean AUC for celecoxib lower than celecoxib alone” value is recorded as 8% and the “mean Cmax for celecoxib lower than celecoxib alone” value is recorded as 13%.

On CYP3A4, `Cc1ncc2n1-c1ccc(Cl)cc1C(c1ccccc1F)=NC2` [Midazolam, midazolam] gave an AUC(0-inf) of 67 ng·h/mL, an exposure AUC(0-t) of 64.7 ng·h/mL and a Cmax of 16.8 ng/mL. In addition, at Cytochrome P450 3A4 (setting [4]), the “mean AUC for midazolam lower than midazolam alone” value was determined as 32% and the “mean Cmax for midazolam lower than midazolam alone” value amounted to 25%. Besides, at Cytochrome P450 3A4 (setting [5]), the “midazolam overall exposure reduced by” value is listed as around 32% and the “midazolam peak exposure reduced by” value was “approximately 26%”. In addition, on Cytochrome P450 3A4 (upon coadministration with multiple-dose RAVICTI, listed as midazolam), the “midazolam peak exposure reduced by” value is 26%.

Values taken from patent US20190076384A1, “METHODS FOR TREATING UREA CYCLE DISORDERS” (priority 2017, published 2019).
